Columns and labels:
Format in all cases: cell-based, human
H9 hESCs = assay: HOX, OTX2 and T gene expression by RT-PCR/qPCR during hESC differentiation with morphogens; conditions: HX531 1 μM; RT-PCR
Protocol: hPSC differentiation. hPSCs were washed once with phosphate-buffered saline (PBS; Invitrogen), dissociated with ACCUTASE® (Invitrogen) for 3 min, and collected by centrifugation. hPSCs were then seeded onto VTN-NC-coated plates in E8 medium containing 10 μM ROCK inhibitor (Y27632; R&D Systems). Seeding density was 2×10^5 cells/cm^2. The following day, the cells were switched to E6 medium (same composition as E8 medium minus FGF2 and TGFβ 1). Morphogen treatments were then carried out according to the figures in the text. Cells were supplemented with FGF8b (100-200 ng/ml; Peprotech), CHIR99021 (3-6 μM; Tocris), and/or RA (3 μM; Sigma).
Reverse transcriptase polymerase chain reaction (RT-PCR). Total RNA was extracted from cells using TRIZOL® reagent (Invitrogen) according to the manufacturer's instructions. RNA was then subjected to reverse-transcription using a Thermoscript™ RT-PCR kit (Invitrogen) in a 20 μL mixture according to the manufacturer's instructions. The resulting cDNA was then amplified in a 25 μL mixture containing 10×PCR buffer, 0.2 mM dNTP, 1.5 mM MgCl2, 0.5 μM of each primer, and 1 U Taq DNA polymerase (Invitrogen). Amplified products were resolved on 2% agarose gels containing SYBR Safe (Invitrogen) and visualized with a VersaDoc (BioRad). Primer sequences can be found in Table 3. All amplifications were carried out for 35 cycles. HOXC5 and HOXC6 were amplified at 58° C., all others with an annealing temperature of 55° C.
Propagation and differentiation of neuromesodermal progenitors. H9 hESCs (passage 25-45), H9 ishcat2 hESCs (passage 33-43), and IMR90-4 iPSCs (passage 31-40) were maintained in E8 medium on MATRIGEL© (BD Biosciences) as previously described. To initiate differentiation, hPSCs were passaged with ACCUTASE© (Life Technologies) onto vitronectin (VTN-NC)-coated plates at a density of 1×10^5 cells/cm^2 as previously described. The following day, cells were changed to E6 medium. 24 h later, cells were changed to E6 medium containing 200 ng/ml FGF8b (Peprotech). 24 h later, cells were washed once with 2 ml PBS, treated with ACCUTASE® for 2 min, and removed from the surface by gentle pipetting. After collection by centrifugation, cells were gently resuspended in E6 medium containing 200 ng/ml FGF8b and CHIR99021 (CHIR, concentration varied depending on cell line; Tocris) and re-seeded on VTN-NC-coated plates at a density of 1.5×10^5 cells/cm^2. Medium was not changed until 48 h after passaging. This passaging process was repeated on day 3 of CHIR 99021 treatment (re-seed density of 1.2×10^5 cells/cm^2) if extended neuromesodermal propagation was required, and 50 ng/ml GDF11 (Peprotech) was added on day 4 of CHIR 99021 treatment to initiate lumbar patterning. Cells were changed to E6 medium containing 1 μM retinoic acid (RA; Sigma) to facilitate neural transition.
qPCR. Total RNA was extracted from cultured cells using TRIZOL® (Life Technologies) according to the manufacturer's instructions. After isolation, 2-5 μg of total RNA was immediately subjected to reverse transcription using the Thermoscript™ RT-PCR kit (Life Technologies) in a 20 μL reaction according to the manufacturer's instructions. […] For all experiments, ΔΔCt values for each gene were calculated relative to ribosomal protein S18 (RPS18) RNA levels and converted to fold difference assuming 100% primer efficiency, then normalized to maximum expression levels as indicated in each figure legend. […]

[1] = test system: neuromesodermal progenitors; assay: Neuroectoderm or mesoderm fate transition of neuromesodermal progenitors by flow cytometry
Protocol: (§1) Assessment of neuroectoderm or mesoderm fate transition by flow cytometry. Grey histogram, IgG control; red histogram, antigen of interest. Data are presented as mean±standard deviation calculated from two biological replicates. (FIG. 8B) For experiments in panels FIGS. 8C-8F, neuromesodermal propagation was halted by removing FGF8b/CHIR 99021/GDF11 and adding RA. Assays were conducted after 4 days of RA treatment. (FIG. 8C) HOX profiles generated after RA treatment. Each gene is normalized to its maximum expression. Error bars are standard deviation calculated from duplicate reactions. (FIG. 8D) HoxB4 and HoxD10 expression in neuroepithelial cultures after RA treatment. Scale bars, 100 m. (FIG. 8E) Purity of Sox2, Pax6, HoxB4, and HoxD10 after 4 days of RA treatment. Sox2, Pax6, and HoxB4 were quantified using flow cytometry and HoxD10 was quantified by manual counting of dissociated cells ([…]). Error bars are standard deviation calculated from at least two biological replicates. […] (FIG. 8F) Motor neuron differentiation at cervical, thoracic, and lumbar spinal cord depths, where the motor neuron precursors show region-specific patterns of FoxP1, Isl1, and Hb9 co-expression. (FIG. 8G) Neuronal maturation from cervical, thoracic, and lumbar patterned NSCs, as assessed by immunocytochemistry (top panel; DAPI (blue) is overlaid in all images; Scale bars, 20 m) and RT-PCR (50 cycles; bottom panel).
(§2) Flow cytometry. Flow cytometry was conducted as described in the Examples above. Primary antibodies against Sox2 (mouse; 1:1000; Millipore), brachyury (goat; 1:200; R&D Systems), Pax6 (mouse; 1:200; DSHB), and HoxB4 (rat; 1:50; DSHB) were utilized. Samples were run on a FACSCaliber (BD Biosciences) and data were analyzed using Cyflogic software. Positive events were quantified by gating above the top 1% of species-matched IgG controls.
We next evaluated the transition of neuromesodermal progenitors to definitive neural progenitors. RA secreted from somites in response to declining FGF signaling elicits dorsal/ventral patterning and expression of the neuroectoderm marker Pax6 in vivo^16, 26, which led us to suspect RA serves as both the neuroectoderm fate switch and HOX ‘stop signal’. We first investigated the ability of RA to initiate neuroectoderm specification from neuromesodermal progenitors. […] At any point in neuromesodermal differentiation, the addition of RA generated highly pure (>83%) Pax6^+ neuroectoderm (FIGS. 8B-8E and FIGS. 9A-9C).

NSC cultures = assay: Hox protein expression in NSC cultures after RA treatment (immunocytochemistry, flow cytometry)
Protocol: as §1
FIGS. 9A-9C (FIG. 9A) provides additional data showing that RA induces a neuroectodermal fate and halts colinear HOX activation, using the neural differentiation scheme shown in FIG. 8B and representative hindbrain cultures assessed by qPCR. (FIG. 9B) Representative hindbrain cultures assessed by immunocytochemistry. (FIG. 9C) Representative hindbrain cultures assessed by flow cytometry. All data are presented as mean±S.D. and qPCR data are normalized to the time point of maximum expression for each gene. For the hindbrain cultures, HoxB1 and HoxB4 were quantified by immunocytochemistry relative to DAPI+ nuclei, while Sox2 and Pax6 were quantified by flow cytometry. Scale bars, 100 m.
as §2
Immunocytochemistry. Immunocytochemistry was conducted as previously described. […]

H9 ishcat2 line = assay: qPCR gene expression in H9 ishcat2 line (doxycycline-inducible β-catenin shRNA)
Protocol: Cell lines were passaged for differentiation on day −1 for all experiments (see Example 4 for details). (FIG. 4A) Timeline of H9 hESC differentiation corresponding to panels (FIG. 4B) and (FIG. 4C). RA, 1 μM; CHIR 99021, 3 μM; FGF8b, 100 ng/ml. (FIG. 4B) Gene expression analysis by RT-PCR. Control sample is E6 medium alone. (FIG. 4C) qPCR analysis at day 5 of differentiation normalized to the morphogen treatment that yielded maximum expression. Statistical significance was calculated using the Student's unpaired t-test relative to the sample with maximum expression (*, p<0.005; **, p<0.001). (FIG. 4D) qPCR analysis of gene expression at day 2 using the H9 ishcat2 line in the presence or absence of doxycycline (2 μg/ml) added 3 days prior to morphogen treatment. Data are normalized to doxycycline-free samples for each respective morphogen and statistical significance was calculated using the Student's unpaired t-test (*, p<0.01). (FIG. 4E) qPCR analysis of gene expression at day 5 using the H9 ishcat2 line in the presence or absence of doxycycline. Statistical significance was calculated using the Student's unpaired t-test (*, p<0.005). […] [HX531]=1 μM. Timeline shown on left panel.
qPCR. Total RNA was extracted from cultured cells using TRIZOL® (Life Technologies) according to the manufacturer's instructions. After isolation, 2-5 μg of total RNA was immediately subjected to reverse transcription using the Thermoscript™ RT-PCR kit (Life Technologies) in a 20 μL reaction according to the manufacturer's instructions. Resultant cDNA was diluted to 200 μL and utilized for qPCR (25 μL reactions, 1 μL cDNA per reaction) on a BioRad CFX96 detection unit using TAQMAN® Gene Expression Master Mix (Life Technologies) and TAQMAN® primers (Life Technologies). For all experiments, ΔΔCt values for each gene were calculated relative to ribosomal protein S18 (RPS18) RNA levels and converted to fold difference assuming 100% primer efficiency, then normalized to maximum expression levels as indicated in each figure legend.
To confirm the effects of CHIR 99021 were due to activation of β-catenin, we utilized the H9 ishcat2 line which harbors a doxycycline-inducible β-catenin shRNA cassette^23. […] We extended doxycycline with FGF8b/CHIR 99021 for 4 days and observed a reduction in HOXC6 by 9-fold, HOXC8 by 7-fold, and HOXC9 by 8-fold, which implicates β-catenin in HOX progression to caudal paralogs (FIG. 4E).

[2] = test system: neurally differentiating hPSC cultures; assay: Alternative FGF isoforms in HOX patterning protocol (flow cytometry, RT-PCR); conditions: for Sox2 and T (Brachyury) expression: FGF with CHIR, flow cytometry; for Hox1-5 paralog activation: two days of FGF/CHIR treatment, RT-PCR
Protocol: (FIG. 6A) Timeline of differentiation. […] (FIG. 6H) Agarose gel analysis for HOXgene expression after two days of FGF/CHR treatment in the protocol outlined in (FIG. 6A).
Specifically, FGF8a, 8b, and 8f, FGF17, FGF18, and FGF2 were used to execute our HOX patterning protocol on concurrent neurally differentiating hPSC cultures. The ability of alternative FGFs to recapitulate the effects of FGF8b was assessed by their ability to maintain a Sox2^+/T^+ neuromesodermal state while also inducing a similar rate of sequential HOXgene expression. Post FGF/CHIR addition, flow cytometry assays for Sox2 and T were performed, and the rate of sequential HOXgene expression was assessed by RT-PCR for a select panel of HOXgenes on collected mRNA samples.

[3] = neuromesodermal progenitors exposed to E6 medium with the substance
[4] = doxycycline prior to CHIR 99021 treatment, day 2
[5] = doxycycline with FGF8b/CHIR 99021 for 4 days

CN1c2ccc([N+](=O)[O-])cc2N=C(c2ccc(C(=O)O)cc2)c2cc3c(cc21)C(C)(C)CCC3(C)C [HX531]
Effect on ability of FGF8b/CHIR 99021 to activate cervical and thoracic HOX paralogs (H9 hESCs): did not prevent

CC1=C(/C=C/C(C)=C/C=C/C(C)=C/C(=O)O)C(C)(C)CCC1 [RA, retinoic acid]
Purity of Pax6+ neuroectoderm ([1]; RA added at any point in neuromesodermal differentiation): > 83% | Brachyury+ cells [1, 3]: 43±4% | Pax6+ cells [1, 3]: 97±3% | Sox2+ cells [1, 3]: 98±4% | HoxB4+ cells (NSC cultures; RA added 24 h later (within 24 h of HOXC9 induction)): 12±4% | HoxB4+ cells (NSC cultures; RA added between 24-48 h of neuromesodermal propagation): 84±10%

C[C@H]1c2cccc(O)c2C(=O)C2=C(O)[C@]3(O)C(=O)C(C(N)=O)=C(O)[C@@H](N(C)C)[C@@H]3[C@@H](O)[C@@H]21 [doxycycline]
CTNNB1 reduction (H9 ishcat2 line; RA-treated cells, day 2): 2 fold | CTNNB1 (β-catenin) expression reduction (H9 ishcat2 line; doxycycline 2 μg/ml prior to CHIR 99021 treatment, day 2): 2.5 fold | HOXA1 expression decrease (H9 ishcat2 line; [4]): 15 fold | HOXB1 expression decrease (H9 ishcat2 line; [4]): 47 fold | T reduction (H9 ishcat2 line; doxycycline with FGF8b/CHIR 99021, day 5): 30 fold | HOXC6 reduction (H9 ishcat2 line; [5]): 9 fold | HOXC8 reduction (H9 ishcat2 line; [5]): 7 fold | HOXC9 reduction (H9 ishcat2 line; [5]): 8 fold

FGF2: fibroblast growth factor isoform used instead of FGF8b
Sox2 and T (Brachyury) expression [2]: nearly uniform expression of Sox2 and T (Brachyury) | Hox1-5 paralog activation [2]: activated Hox1-5 paralogs

B1: FGF17: fibroblast growth factor isoform used instead of FGF8b (protein, UniProt O60258 23-216, looked up)
Fibroblast growth factor 17: TQGENHPSPNFNQYVRDQGAMTDQLSRRQIREYQLYSRTSGKHVQVTGRRISATAEDGNKFAKLIVETDTFGSRVRIKGAESEKYICMNKRGKLIGKPSGKSKDCVFTEIVLENNYTAFQNARHEGWFMAFTRQGRPRQASRSRQNQREAHFIKRLYQGQLPFPNHAEKQKQFEFVGSAPTRRTKRTRRPQPLT
Sox2 and T (Brachyury) expression [2]: nearly uniform expression of Sox2 and T (Brachyury) | Hox1-5 paralog activation [2]: activated Hox1-5 paralogs

B2: FGF18: fibroblast growth factor isoform used instead of FGF8b (protein, UniProt O76093 28-207, looked up)
Fibroblast growth factor 18: EENVDFRIHVENQTRARDDVSRKQLRLYQLYSRTSGKHIQVLGRRISARGEDGDKYAQLLVETDTFGSQVRIKGKETEFYLCMNRKGKLVGKPDGTSKECVFIEKVLENNYTALMSAKYSGWYVGFTKKGRPRKGPKTRENQQDVHFMKRYPKGQPELQKPFKYTTVTKRSRRIRPTHPA
Sox2 and T (Brachyury) expression [2]: nearly uniform expression of Sox2 and T (Brachyury) | Hox1-5 paralog activation [2]: activated Hox1-5 paralogs
